From patent US9757383B2, “Cyclohexylamine derivatives having β2 adrenergic agonist and M3 muscarinic antagonist activities” (ALMIRALL, S.A., priority 2011, dated 2017) come the findings set out here.

Test [1] addresses human muscarinic M3 receptor (Homo sapiens (Human), UniProt P20309). In words: Human muscarinic M3 receptor binding assay ([3H]-NMS, CHO-K1 cell membranes). The settings on record: 1 nM [3H]-NMS, membranes from CHO-K1 cells. On the procedure: Test 2: Human Muscarinic M1, M2, M3, M4 and M5 Receptors Binding Assays
The study of binding to human muscarinic M1, M2, M3, M4 and M5 receptors was performed using commercial membranes (Perkin Elmer) prepared from CHO-K1 cells. Radioligand binding experiments were conducted in 96 polypropylene well plates in a total volume of 200 μl. All reagents were dissolved in assay binding buffer (PBS with calcium and magnesium, SIGMA), except compounds that were dissolved in DMSO 100%. Non-specific binding (NSB) was measured in the presence of 1 μM atropine. [3H]-NMS was used as the radioligand at a concentration of 1 nM for M2, M3 and M5 and 0.3 nM for M1 and M4. […]
After an incubation period of two hours with gentle shaking, 150 μl of the reaction mix were transferred to 96 GF/C filter plates (Millipore), previously treated with wash buffer (Tris 50 mM; NaCl 100 mM; pH: 7.4), containing 0.05% PEI (Sigma) during one hour. […] After drying 30 min, 30 μl of OPTIPHASE Supermix were added to each well and radioactivity quantified using a Microbeta microplate scintillation counter.
The affinity of each test compound to the receptors was determined by using ten different concentrations ran in duplicate. IC50s were calculated using Activity Base software from IDBS and the four parameters-log equation.

Test [2] has as its target human adrenergic beta2 receptor (Homo sapiens (Human), UniProt P07550). Kind of test: Human adrenergic β2 receptor binding assay (3H-CGP12177, Sf9 cell membranes). The settings on record: 0.6 nM 3H-CGP12177, membranes from Sf9 cells. On the procedure: Test 1: Human Adrenergic β1 and β2 Receptor Binding Assays
The study of binding to human adrenergic beta1 and beta2 receptors was performed using commercial membranes prepared from Sf9 cells where they are overexpressed (Perkin Elmer). The membrane suspensions (16 μg/well for beta1 and 5 μg/well for beta2) in assay buffer (75 mM Tris/HCl with 12.5 mM MgCl2 and 2 mM EDTA pH=7.4) were incubated with 0.14 or 0.6 nM of 3H-CGP12177 (Amersham) for beta 1 and beta 2 receptors respectively in a final volume of 250 μl, in GFC Multiscreen 96 well plates (Millipore) previously treated with assay buffer containing 0.3% PEI (Sigma). Non specific binding was measured in the presence of 1 μM propanolol. Incubation was maintained for 60 minutes at room temperature and with gentle shaking. The binding reactions were terminated by filtration and washing with 2.5 volumes of Tris/HCl 50 mM pH=7.4. The affinity of each test compound to the receptor was determined by using ten different concentrations ran in duplicate. IC50s were calculated using Activity Base software from IDBS and the four parameters-log equation.

human muscarinic M3 receptor, sequence (P20309 whole entry): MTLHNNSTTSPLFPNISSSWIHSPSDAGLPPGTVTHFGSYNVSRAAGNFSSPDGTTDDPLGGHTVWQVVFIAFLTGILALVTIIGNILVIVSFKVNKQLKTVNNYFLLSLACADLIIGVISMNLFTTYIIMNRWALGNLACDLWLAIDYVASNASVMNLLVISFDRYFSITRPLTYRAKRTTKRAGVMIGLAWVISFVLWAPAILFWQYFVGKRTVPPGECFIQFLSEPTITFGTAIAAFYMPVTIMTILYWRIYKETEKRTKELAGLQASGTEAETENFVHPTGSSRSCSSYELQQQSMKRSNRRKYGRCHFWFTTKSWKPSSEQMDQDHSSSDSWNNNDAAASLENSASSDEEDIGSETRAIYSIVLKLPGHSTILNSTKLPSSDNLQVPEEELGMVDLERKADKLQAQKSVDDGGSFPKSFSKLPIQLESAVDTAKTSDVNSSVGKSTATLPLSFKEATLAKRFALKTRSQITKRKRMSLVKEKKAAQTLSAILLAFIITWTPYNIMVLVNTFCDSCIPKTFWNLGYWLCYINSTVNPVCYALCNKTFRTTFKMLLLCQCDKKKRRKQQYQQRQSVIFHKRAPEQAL

By IC50 is commonly meant the point on the concentration scale where inhibition reaches its midpoint. A lower IC50 goes with higher potency. Turning to `CN(CCCn1c(=O)[nH]c2cc(CNC[C@H](O)c3ccc(O)c4[nH]c(=O)ccc34)ccc21)[C@H]1CC[C@H](OC(=O)C(O)(c2cccs2)c2cccs2)CC1` (relative stereo) [Example 2, trans-4-[{3-[5-({[(2R)-2-hydroxy-2-(8-hydroxy-2-oxo-1,2-dihydroquinolin-5-yl)ethyl]amino}methyl)-2-oxo-2,3-dihydro-H-benzimidazol-1-yl]propyl}(methyl)amino]cyclohexyl hydroxy(di-2-thienyl)acetate dihydrofluoride], the half-inhibitory concentration (IC50) is 0.4 nM in test [1] and 120 nM in test [2].

On to “trans-4-{[2-({2-[4-(2-{[(2R)-2-hydroxy-2-(8-hydroxy-2-oxo-1,2-dihydroquinolin-5-yl)ethyl]amino}propyl)phenoxy]acetyl}amino)ethyl]amino}cyclohexyl hydroxy(di-2-thienyl)acetate dihydrofluoride [Example 20]”, for which the figures for the IC50 in test [1] and in test [2] were 3.6 nM and 3.1 nM, respectively.
